Laboratory results from patent US20240041039A1, “COMPOSITIONS AND METHODS FOR CONTROLLING PLANT PATHOGENS INCLUDING NEMATODES” (Kannar Earth Science, Ltd., priority 2022, published 2024).

Tested on: root knot Meloidogyne sp. nematodes
Test: Two-minute contact of live root-knot nematodes with water-based solutions in watch glass
Assay type: in vivo
Conditions: one drop of water-based solution, fatality recorded within 45 seconds
Protocol: Live root knot nematodes were collected from soil and kept in shallow water in small glass beakers at room temperature. The individual components and combined formulation were prepared according to the following procedures. Aqueous solutions of individual components were prepared at the concentrations as follows: 400 ppm baicalin (95% purity; Shaanxi Darwin Biotech Co, China), 500 ppm water soluble chitosan (85% purity; Shaanxi Rainwood Biotech Co Ltd, China) and 200 ppm L-glutathione (99% purity; Hunan Insen Biotech Co Ltd, China). Since use of liquid polymer is quite common in seed treatment for better and smoother coating or coverage, each of the individual components and combinations of the components was also prepared as a solution in a cellulose-based carrier (Slurry Buddy 110 from […] Science, Ltd.). Baicalin was dissolved in 1.0 ml of DMSO separately prior to addition to the carrier. Chitosan and glutathione were dissolved in 7.8 ml water prior to addition to the 90.0 ml carrier. In each case, the pH of the solution was adjusted to 5.7. […] This liquid flowable formulation can be used as a ready-to-use (RTU) formulation for seed application. […] One drop of the water-based solutions described above was added to the watch glass with the swimming nematode and the reaction of the nematode was recorded for a period of two-minutes. […]

SMILES | Nematode Reaction
N[C@@H](CCC(=O)N[C@@H](CS)C(=O)NCC(=O)O)C(=O)O [Glutathione, L-glutathione] | Repelling
O=C(O)[C@H]1O[C@@H](Oc2cc3oc(-c4ccccc4)cc(=O)c3c(O)c2O)[C@H](O)[C@@H](O)[C@@H]1O [Baicalin, baicalin] | Repelling
